# In article PMC7910999, “Hyaluronidase Inhibitor-Incorporated Cross-Linked Hyaluronic Acid Hydrogels for Subcutaneous Injection” (Pharmaceutics, 2021):
# Like-named read-outs stand apart in the source and are kept apart here.
# Assays:
# [1] = Solubility in various media (HPLC); type: physicochemical; conditions: for solubility: unpublished data
# Description: In order to select a solvent for hydrating (i.e., swelling) the cHA gel, the solubilities of QTP hemifumarate and the QTP base in distilled water (DW), phosphate-buffered saline (PBS; pH = 7.4), and ethanol (EtOH) were determined by high-performance liquid chromatography (HPLC). Briefly, an excess amount of QTP hemifumarate or QTP base was added to 1 mL of each solvent and completely vortex-mixed with vortex shaker (Vortex-Genie 2; Scientific Industries, Inc., Bohemia, NY, USA) at […] 37 °C for 1 day. Upon reaching the steady state, each sample was centrifuged and filtered to eliminate undissolved fractions. An HPLC system equipped with an automatic injector (Waters 717 plus), a pump (Waters 1515; Waters Company, Milford, MA, USA), and a UV/VIS detector (Waters 2487) connected with a reverse-phase C18 column (Kinetex C18; 250 × 4.6 mm, 5 μm; Phenomenex, Torrance, CA, USA) was utilized for measuring the concentration of QTP in each medium. The flow rate of the mobile phase and the injection volume of the specimen were set to 1.0 mL/min and 20 μL, respectively. The mobile phase consisted of 30 mM ammonium acetate in DW (pH 6.0) and methanol (30:70, v/v). The absorption wavelength was set to 238 nm for detection and the retention time of QTP was 14 min [23].
# The QTP base precipitate was prepared using a previously reported desalting method with a slight modification. Briefly, QTP hemifumarate (10 mg) was solubilized in a 1 N HCl solution (0.7 mL), and then, a 1 N NaOH solution (0.8 mL) was added for precipitating the QTP base. The sample was then centrifuged at 16,000× g for 5 min and the supernatant portion was eliminated. After adding 1 mL of DW to the precipitate, it was centrifuged again, and the supernatant was removed. Finally, the QTP base precipitate was freeze-dried at −70 °C for 48 h for further use.
# [2] = molecular target: T1, HAase (from bovine testes) (Bos taurus, UniProt Q2YDK3); experiment: In vitro degradation of cHA hydrogels in PBS containing HAase; type: in vitro ADME; conditions: QCT loaded in cHA hydrogels, 8 h, 5 U/mL HAase
# T1 construct: purchased Sigma-Aldrich Co. (St. Louis, MO, USA); host or cells: bovine testes (tissue-derived preparation)
# T1 sequence (Q2YDK3 36-553): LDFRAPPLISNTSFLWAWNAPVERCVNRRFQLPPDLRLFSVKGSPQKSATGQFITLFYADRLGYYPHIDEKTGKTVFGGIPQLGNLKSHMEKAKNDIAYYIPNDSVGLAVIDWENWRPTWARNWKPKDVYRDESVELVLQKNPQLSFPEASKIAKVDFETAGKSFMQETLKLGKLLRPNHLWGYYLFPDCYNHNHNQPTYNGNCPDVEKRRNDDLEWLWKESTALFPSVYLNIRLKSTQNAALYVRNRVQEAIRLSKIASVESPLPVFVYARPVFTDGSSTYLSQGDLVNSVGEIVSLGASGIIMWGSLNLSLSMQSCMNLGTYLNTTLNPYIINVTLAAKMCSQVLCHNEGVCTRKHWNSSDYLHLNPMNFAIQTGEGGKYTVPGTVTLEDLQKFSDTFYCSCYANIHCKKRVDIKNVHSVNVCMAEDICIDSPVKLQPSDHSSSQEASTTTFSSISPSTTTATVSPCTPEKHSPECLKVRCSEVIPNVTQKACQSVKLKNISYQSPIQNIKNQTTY
# Description: The in vitro degradation feature of the cHA hydrogel structures was investigated by monitoring the mass change of the hydrogels compared to their initial weight according to a previously reported, slightly modified method. Briefly, to evaluate the weight change of the cHA and QCT-loaded cHA hydrogels (i.e., cHA/QCT1, cHA/QCT3, and cHA/QCT5), each gel specimen (approximately 1.1 g) was placed into 10 mL of a PBS solution containing 5 U/mL of HAase. Upon immersion in the media, the weight of the hydrogels was measured at 2, 4, 6, and 8 h. The remaining weight percentage (%) of each hydrogel compared to the initial weight was recorded.
# [3] = In vitro release of QTP (dialysis bag method); type: physicochemical; conditions: within 8 h; PBS with 0.5% SLS, 37 °C
# Description: The release of QTP from the cHA hydrogels was measured using the dialysis bag method. Briefly, aliquots of the free QTP solution (in ethanol/PEG 400/PBS = 1/1/2 (v/v/v)) and the QTP-loaded hydrogels (i.e., cHA/QTP and cHA/QTP/QCT5) (corresponding to 12 mg of QTP) were loaded into dialysis membranes (2 kDa of molecular weight cut-off; Cellu Sep H1, Membrane Filtration Products Ltd., Seguin, TX, USA). In case of cHA/QTP/QCT5 + HAase group, HAase (1 mg/mL) was added to the cHA/QTP/QCT5 hydrogel. Each membrane sac was immersed in PBS (20 mL) containing 0.5% SLS, and then they were agitated in a shaking water bath (37 °C) at 50 rpm. Aliquots of the release media were collected at 0.5, 1, 2, 4, 6, 8, 24, 48, 72, 96, 144, 168, 192, 288, 336, and 360 h, and the same volume of fresh medium was replenished each time. The QTP concentrations in the release media were quantitatively determined by the HPLC method described above.
# [4] = rats, intragastric administration; cited from earlier work
smiles,measurement,setting,value
"OCCOCCN1CCN(C2=Nc3ccccc3Sc3ccccc32)CC1 [QTP base, quetiapine]",solubility at 1 day,"[1]; ethanol, organic solvent or mixture, thermodynamic from solid, EtOH, Figure 2A",> 50 mg/mL
"O=c1c(O)c(-c2ccc(O)c(O)c2)oc2cc(O)cc(O)c12 [QCT, quercetin]",solubility,"[1]; ethanol, organic solvent or mixture, EtOH, read-out: Solubility in EtOH",17.6 ± 1.05 mg/mL
same,solubility,"[1]; water, read-out: Solubility in water",< 0.01 mg/mL
same,HAase inhibition,[2],inhibited HAase in a dose-dependent manner
"OCCOCCN1CCN(C2=Nc3ccccc3Sc3ccccc32)CC1 [QTP, quetiapine]",QTP diffused from the dialysis membrane,[3],over 90%
same,Biological half-life,[4],2.1 h
